Source: patent US20260000635A1, “THERAPEUTIC AGENT FOR GLAUCOMA COMPRISING FP AGONIST AND ß BLOCKER” (ONO PHARMACEUTICAL CO., LTD., priority 2017, published 2026)

System: male dogs (TOYO Beagle)
Assay: Intraocular pressure lowering action after instillation in dogs
Assay type: in vivo, dog (TOYO Beagle)
Conditions: for Time after administration exhibiting maximum intraocular pressure lowering action: 30 μL instillation, measured at 2, 4, 6, 8, 24 h; for Intraocular pressure lowering width 24 hours after administration / Maximum intraocular pressure lowering width: mean ± S.E., n=8, 30 μL instillation, Compound A 3 μg/mL, timolol 0.5% ophthalmic solution; for Maximum intraocular pressure lowering width: maximum of average lowering width over 2, 4, 6, 8, 24 h
Protocol: Compound A and a β-blocker were used as test substances. Compound A was prepared in a 3 μg/mL solution using a vehicle (an aqueous solution containing 0.3 w/v % sodium citrate, 0.5 w/v % polysorbate 80, and 0.8 w/v % sodium chloride). Timolol (trade name: Timoptol (registered trademark) 0.5% ophthalmic solution, Santen Pharmaceutical Co., Ltd.) was used as a β-blocker.
Approximately one hour before administering the vehicle and a test substance to male dogs (TOYO Beagle, 16 to 42 months old at start of use) that have been sufficiently acclimated in advance, intraocular pressure in both eyes was measured, and the intraocular pressure was set as the intraocular pressure value before instillation. Thereafter, a test substance or the vehicle was administered by instillation into the treated eyes in an amount of 30 μL each, and intraocular pressure in both eyes was measured about 2, 4, 6, 8, and 24 hours after the administration. The intraocular pressure was measured by a pneumatic applanation tonometer (Model 30 Classic, Reichert, Inc.) under the local anesthesia after instilling 0.4% oxybuprocaine hydrochloride (Benoxil (registered trademark) ophthalmic solution 0.4%, Santen Pharmaceutical Co., Ltd.), which is a local anesthetic. The measurement was performed until a stable value was obtained three times successively (a difference between continuously obtained measured values was within 0.5 mmHg).
The value obtained by subtracting the intraocular pressure value at each measurement time from the intraocular pressure value before test substance and vehicle administration was defined as the intraocular pressure lowering width, and the average value of the intraocular pressure lowering width of each individual at each measurement time was defined as the average intraocular pressure lowering width. The maximum value of the average intraocular pressure lowering width at each measurement time was defined as the maximum intraocular pressure lowering width. In addition, the average intraocular pressure lowering width 24 hours after administration was defined as the intraocular pressure lowering width 24 hours after administration. Meanwhile, in the case where there are two drug names in a group name, it means the order of administration. For example, the Compound A-timolol group means that Compound A was administered first, and timolol was administered thereafter into the same eye.

Row | SMILES | Time after administration exhibiting maximum intraocular pressure lowering action | Intraocular pressure lowering width 24 hours after administration | Maximum intraocular pressure lowering width
1 | CC(C)(C)NC[C@H](O)COc1nsnc1N1CCOCC1 [Vehicle-timolol, timolol] | 2 h | 0.0 ± 0.56 mmHg | 2.7 ± 0.56 mmHg
2 | CC(C)OC(=O)CCC[C@H]1CC[C@@H]2[C@@H](/C=C/[C@@H](O)COc3cc(F)ccc3F)[C@H](O)C[C@@H]2OC1 [Compound A-vehicle, 2-propanyl 4-{(3S,5aR,6R,7R,8aS)-6-[(1E,3R)-4-(2,5-difluorophenoxy)-3-hydroxy-1-buten-1-yl]-7-hydroxyoctahydro-2H-cyclopenta[b]oxepin-3-yl}butanoate] | 6 h | 3.5 ± 0.75 mmHg | 5.8 ± 0.35 mmHg
